# Laboratory results taken from article PMC5222924, “Synergistic interplay of Gβγ and phosphatidylinositol 4,5-bisphosphate dictates Kv7.4 channel activity” (Pflugers Archiv, 2016).
# Tests used:
# [1] = molecular target: T1, Kv7.4 (Homo sapiens, UniProt P56696); test: whole-cell patch clamp; assay type: cell-based; conditions: room temperature; opener, concentration not given; common approximate value for three openers
# T1 construct: gene KCNQ4; full-length channel, homomer, stably expressed in HEK293 cells (line a gift from the University of Copenhagen)
# T1 sequence (P56696 1-695): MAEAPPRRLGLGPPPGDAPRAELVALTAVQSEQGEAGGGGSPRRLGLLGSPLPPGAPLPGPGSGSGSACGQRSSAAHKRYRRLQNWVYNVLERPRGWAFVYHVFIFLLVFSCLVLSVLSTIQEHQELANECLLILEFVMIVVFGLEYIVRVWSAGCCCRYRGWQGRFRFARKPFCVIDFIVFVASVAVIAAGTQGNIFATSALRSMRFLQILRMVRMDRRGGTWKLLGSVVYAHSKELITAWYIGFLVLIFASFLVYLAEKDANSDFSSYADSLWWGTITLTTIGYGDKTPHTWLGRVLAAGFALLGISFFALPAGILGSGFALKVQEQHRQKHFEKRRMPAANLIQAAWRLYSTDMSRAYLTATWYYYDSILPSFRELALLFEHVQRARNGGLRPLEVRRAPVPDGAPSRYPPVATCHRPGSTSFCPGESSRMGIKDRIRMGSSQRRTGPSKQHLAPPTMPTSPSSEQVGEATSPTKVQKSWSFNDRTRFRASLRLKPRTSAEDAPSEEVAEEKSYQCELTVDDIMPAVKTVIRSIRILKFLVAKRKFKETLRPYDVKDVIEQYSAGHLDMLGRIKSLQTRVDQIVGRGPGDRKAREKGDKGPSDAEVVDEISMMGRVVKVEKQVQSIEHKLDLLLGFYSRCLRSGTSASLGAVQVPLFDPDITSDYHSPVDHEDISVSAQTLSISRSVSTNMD
# [2] = molecular target: Kv7.4 channel (UniProt P56696)
# [3] = molecular target: T1, Kv7.4; test: inside-out patch clamp, single-channel NPo; assay type: cell-based; conditions: room temperature; activator applied to excised patch, no added Gβγ; unreliable: saturation not reached, sigmoidal fit of pooled patches
compound,measurement,setting,value
CCOC(=O)Nc1ccc(NCc2ccc(F)cc2)cc1N [Retigabine],% increase of current at +20 mV,[1],~ 40%
G-protein βγ subunits from bovine brain (from UniProt P62871 1-340; P63212 1-71) (complex),"half maximal stimulation of Kv7.4 channel activity, inside-out excised patches, bath application of Gβγ (0.4–50 ng/ml)",[2],8.1 ng/mL
same,"increase of whole-cell Kv7.4 current amplitude within 5 min of rupture, intracellular perfusion of active Gβγ (250 ng/ml), control cells",[2],70%
NS15370,% increase of current at +20 mV,[1],~ 40%
PIP2,half-maximal stimulation,[3],~ 117 μM
